# Patent US20170298314A1, “NANO-DROPLET PLATE” (Research Foundation of the City University of New York, priority 2016, published 2017)
# System: HEK 293 cells
# Assay: Penetration of FAM-labeled cell permeable peptide into HEK 293 cells in alginate gel drops, CLSM imaging
# Assay type: cell-based, Human
# Conditions: 15 μg/mL, 5 mins incubation, 1% w/v alginate, 63× oil immersion lens
# Experimental: High resolution observation of reactions between peptides and cells. Not only should proteins and peptides diffuse through the gel, they should also be able to react with cells, for drug screening applications. […] Sodium alginate solution (1% w/v) was mixed with a HEK 293 cell suspension and used as a source solution for single dispensing on 750 μm diameter nDAP anvils using a single robotically controlled rod. The alginate was cured with 1% calcium chloride for 5 min. […] The holder was filled with medium and imaged using a confocal microscope (CLSM). After the cells were imaged, a 15 μg/mL solution of (Arg)9 was introduced using a syringe, displacing the medium. […] The holder enables observation of single cells at high resolution while permitting the exchange of solutions without interfering with the gel anchor on the nDAPs.
substance,measurement,value
(Arg)9,penetration into HEK 293 cells through gel,Two cells with cell permeable protein were clearly seen
